Structures can show the parent of a compound that is named as a salt.
Tests used:
[1] = established in previous literature; basis for dosing up to 100xCmax; read-out: Cmax (the maximum plasma concentration); cited from earlier work
LSECs = conditions: known from the literature; cited from earlier work
[2] = system: tri-cultures of hepatocytes with 3T3-J2 fibroblasts and either liver sinusoidal endothelial cells (LSECs) or human umbilical vein endothelial cells (HUVECs); test: Drug toxicity screen: albumin secretions in hepatocyte/fibroblast/endothelia tri-cultures; conditions: azathioprine 100x and 50xCmax, dacarbazine 100xCmax, monocrotaline 100xCmax; 6 days, serum-free media; tri-cultures with LSECs or HUVECs compared with hepatocyte/3T3-J2 co-cultures
Protocol: Tissue culture polystyrene 24-well plates (Corning® Life Sciences) were coated for 2 hours with 25 μg/mL rat tail collagen-I (Corning® Life Sciences) and rinsed twice with sterile water. […] Cryopreserved PHHs after processing were seeded at a density of 6.67×10^5 cells/mL into collagen micropatterned wells (300 μL/well). After allowing 4-5 hours for cellular attachment and spreading onto collagen-coated islands, wells were washed 3× in DMEM base medium to remove unattached cells, leaving ˜3×10^4 PHHs per well in 24-well format (˜90 islands/well). Cultures in the co-planar arrangement were backfilled with fibronectin (2 μg/cm^2) before endothelia and 3T3-J2 fibroblasts were seeded 12-18 hours later and allowed to fill the remaining area surrounding the PHH islands. The hepatocyte:endothelial ratio was chosen to match the physiologic ratio of 5 hepatocytes (3×10^4 per well) to 1 endothelium (6×10^3 per well), and 3T3-J2 fibroblasts were added to bring the total stromal cell count to 9×10^4 cells per well. Cultures in the layered configuration were seeded with 9×10^4 3T3-J2 fibroblasts per well 12-18 hours after seeding PHHs to fill in remaining areas, overlaid with 250 μg/mL Matrigel® (Corning® Life Sciences), and then seeded with 6×10^3 endothelia per well the following day. […]
Hepatic morphological, functionality, and health assessments. The morphology of MPCCs was monitored using an EVOS® FL cell imaging system (Life Technologies) with standard 4×, 10×, and 20× phase contrast objectives. CYP3A4 activity in MPCCs was measured using the luminescence-based luciferin-IPA assay from Promega® (Madison, WI) per manufacturer's instructions. CYP2A6 was evaluated by treating the cultures with 50 μM coumarin for 1 hour and measuring the production of the metabolite 7-hydroxycoumarin. Albumin secretions were assessed with an enzyme-linked immunosorbent assay (ELISA) with horseradish peroxidase detection and 3,3′,5,5′-tetramethylbenzidine as the substrate. Urea production was measured via a colorimetric endpoint analysis with diacetylmonoxime, acid, and heat (Stanbio® Labs, Boerne, TX). […]

## Cn1cnc([N+](=O)[O-])c1Sc1ncnc2nc[nH]c12 [azathioprine]
[1]
  Cmax: 3.61 µM
LSECs
  Toxicity specific to LSECs rather than hepatocytes: toxicity specific to LSECs rather than hepatocytes
[2]
  Albumin secretions (drug toxicity), normalized to DMSO-only controls: more responsive to drug toxicity

## CCN(CC)CCOc1ccc(C(=C(Cl)c2ccccc2)c2ccccc2)cc1 [clomiphene citrate]
LSECs
  Toxicity specific to LSECs rather than hepatocytes: toxicity specific to LSECs rather than hepatocytes

## CN(C)/N=N/c1[nH]cnc1C(N)=O [dacarbazine]
[1]
  Cmax: 43.9 µM
LSECs
  Toxicity specific to LSECs rather than hepatocytes: toxicity specific to LSECs rather than hepatocytes
[2]
  Albumin secretions (drug toxicity), normalized to DMSO-only controls: more responsive to drug toxicity

## C[C@H]1C(=O)O[C@@H]2CCN3CC=C(COC(=O)[C@](C)(O)[C@]1(C)O)[C@H]23 [monocrotaline]
[1]
  Cmax: 10 µM
LSECs
  Toxicity specific to LSECs rather than hepatocytes: toxicity specific to LSECs rather than hepatocytes
[2]
  Albumin secretions (drug toxicity), normalized to DMSO-only controls: more responsive to drug toxicity
